# Laboratory results: patent US11473077B2, “Engineered tyrosine ammonia lyase” (Codexis, Inc., priority 2018, dated 2022)
# Legend:
# [1] = biological target: T1, Flavobacterium johnsoniae tyrosine ammonia lyase (TAL), SEQ ID NO: 6 (Flavobacterium johnsoniae, UniProt A5FKY3); experiment: SFP characterization assay for kinetic parameters on tyrosine (Michaelis-Menten fit, absorbance at 290 nm); assay type: biochemical; conditions: 0-2.48 mM tyrosine, 200 mM sodium phosphate, pH 7.0, A290
# T1 sequence (A5FKY3 1-506): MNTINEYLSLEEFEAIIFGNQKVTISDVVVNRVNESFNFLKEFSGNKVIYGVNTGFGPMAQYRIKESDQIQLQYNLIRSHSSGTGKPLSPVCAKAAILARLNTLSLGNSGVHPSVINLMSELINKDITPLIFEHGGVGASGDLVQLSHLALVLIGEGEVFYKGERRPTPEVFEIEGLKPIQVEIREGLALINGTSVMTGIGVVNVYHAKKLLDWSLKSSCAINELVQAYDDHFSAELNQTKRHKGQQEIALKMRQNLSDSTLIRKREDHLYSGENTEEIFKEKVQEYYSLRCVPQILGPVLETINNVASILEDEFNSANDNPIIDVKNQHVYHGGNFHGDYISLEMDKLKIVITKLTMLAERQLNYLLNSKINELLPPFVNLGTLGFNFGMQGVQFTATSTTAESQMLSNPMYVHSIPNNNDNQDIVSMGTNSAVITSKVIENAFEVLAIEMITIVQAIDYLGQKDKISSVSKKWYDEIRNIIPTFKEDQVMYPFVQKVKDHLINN
# Source text: (§1) Polynucleotide sequences encoding phenylalanine and tyrosine ammonia lyases from Stanieria cyanosphaera (SEQ ID NO: 2), Chroogloeocystis siderophila (SEQ ID NO: 4), Flavobacterium johnsoniae (SEQ ID NO: 6), and Rhodotorula glutinis (SEQ ID NO: 8) were synthesized as the genes of SEQ ID NOS: 1, 3, 5, and 7, respectively. These synthetic genes were cloned into a pCK110900 vector system (See e.g., U.S. Pat. No. 7,629,157 and US Pat. Appln. Publn. Nos. 2016/0244787, and 2006/0195947, all of which are incorporated by reference), and subsequently expressed in an E. coli strain derived from W3110. In some embodiments, expression vectors lacking antimicrobial resistance markers find use.
# (§2) E. coli cultures transformed with plasmids containing TAL variants were plated onto LBagar plates with 1% glucose and in some instances, 30 μg/mL chloramphenicol, and grown overnight at 37° C. A single colony from each culture was transferred to 5 mL of Luria Broth (LB) with 1% glucose and 30 μg/mL chloramphenicol, where appropriate. The cultures were grown for 18 h at 30° C., 250 rpm, and subcultured approximately 1:50 into 250 ml of TB with 30 μg/mL of chloramphenicol. The cultures were grown for approximately 3-4 h at 30° C., 250 rpm, to an OD600 of 0.6-0.8, and induced with 1 mM of IPTG. The cultures were grown for 20 h at 30° C., 250 rpm. Cells were harvested by centrifugation (7000 rpm×10 min, 4° C.), and the supernatants were discarded. The pellets were resuspended in 30 mL of 20 mM sodium phosphate, pH 8.0, with 150 mM NaCl in some instances, and lysed using a single pass through a microfluidizer (Microfluidics), at 110 psi. The lysates were pelleted (10,000× rpm, 30 min, 4° C.), and the supernatants were heated for 1-2 hours at 60-65° C. in a water bath before being pelleted again (10,000× rpm, 1 h, 4° C.). The resulting supernatants were then frozen and lyophilized to generate powders containing the expressed enzymes.
# (§3) SFP Characterization Assay for Activity on Tyrosine and Phenylalanine
# (§4) To evaluate if the mutations in the TAL variants had altered kinetics, the Michaelis constant (Km) and maximum velocity (Vmax) were determined for each variant. To assay, 20 μl of diluted TAL variants at 1 g/L and 180 μL of 2-fold serially diluted tyrosine (0-2.48 mM tyrosine in 200 mM sodium phosphate, pH 7.0), were added to the wells of a 96-well UV-STAR® plate (Greiner Bio-One). The reactions were mixed briefly, and the activity was determined by tracking the absorbance at 290 nm over time (every 14-37s over 5 min) using a SPECTRAMAX® Plus 384 or a SPECTRAMAX® 190 (Molecular Devices) absorbance microplate reader. The Vmax and Km for each tested TAL variant was determined by fitting the data to a Michaelis-Menten equation using non-linear regression.
# [2] = biological target: T2, Stanieria cyanosphaera tyrosine ammonia lyase (TAL), wild type, SEQ ID NO: 2 (Stanieria cyanosphaera, UniProt K9XQ92); experiment: as above; assay type: biochemical; conditions: 0-2.48 mM tyrosine, 200 mM sodium phosphate, pH 7.0, A290
# T2 sequence (K9XQ92 1-562): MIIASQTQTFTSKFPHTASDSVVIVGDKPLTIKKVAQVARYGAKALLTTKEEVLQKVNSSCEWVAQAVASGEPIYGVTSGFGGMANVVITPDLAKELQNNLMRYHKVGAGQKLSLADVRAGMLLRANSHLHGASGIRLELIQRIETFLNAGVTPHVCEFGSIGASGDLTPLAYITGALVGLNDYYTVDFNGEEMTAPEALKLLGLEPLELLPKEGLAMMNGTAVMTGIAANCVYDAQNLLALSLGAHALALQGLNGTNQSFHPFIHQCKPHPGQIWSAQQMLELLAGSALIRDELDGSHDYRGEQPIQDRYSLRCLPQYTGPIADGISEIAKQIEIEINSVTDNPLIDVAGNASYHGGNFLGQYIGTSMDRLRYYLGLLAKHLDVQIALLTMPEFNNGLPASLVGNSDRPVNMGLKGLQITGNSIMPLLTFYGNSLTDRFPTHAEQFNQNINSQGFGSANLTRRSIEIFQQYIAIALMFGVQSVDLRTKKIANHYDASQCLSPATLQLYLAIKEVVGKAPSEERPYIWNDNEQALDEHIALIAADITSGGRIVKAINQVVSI
# Source text: as §1, §2, §3, §4
smiles,measurement,setting,value
"N[C@@H](Cc1ccc(O)cc1)C(=O)O [Tyr, L-tyrosine]",Km,[1]; read-out: Tyr Km,< 50 µM
same,Tyr Vmax,[1]; diluted TAL at 1 g/L,+ (“+” = 0.5-1)
same,Km,[2]; read-out: Tyr Km,50 to 150 µM
same,Tyr Vmax,[2]; diluted TAL at 1 g/L,+++ (“+++” > 5)
